{
  "source": "patent US6603044B1",
  "about": "“Phthalamide derivatives, or salt thereof agrohorticultural insecticide, and method for using the same” (Nihon Nohyaku Co., Ltd., priority 1998, dated 2003)",
  "assay_type_in_all_cases": "in vivo",
  "key": {"[1]": {"system": "Diamond Back Moth (Plutella xylostella)", "test": "Insecticidal effect on diamond back moth (Test Example 1)", "details": "50 ppm; Chinese cabbage seedling with deposited eggs immersed about 30 seconds; 25° C.; six days after the immersion", "method_in_brief": "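Mortality was scored six days after treatment by counting hatched insects, in three groups of 10. Treatment meant immersing egg-bearing cabbage seedlings (two days post-oviposition) for about 30 seconds in 50 ppm compound preparation, then drying and holding at 25° C.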"}, "[2]": {"system": "Common Cutworm (Spodoptera Litura)", "test": "Insecticidal effect on common cutworm (Test Example 2)", "details": "50 ppm; cabbage leaf immersed about 30 seconds; second-instar larvae; 25° C.; eight days after the inoculation", "excerpt": "Insecticidal Effect on Common Cutworm (Spodoptera Litura)\nA piece of cabbage leaf (cultivar; Shikidori) was immersed for about 30 seconds in a liquid chemical prepared by diluting a preparation containing each compound listed in Table 1, 2 or 3 as an active ingredient to adjust the concentration to 50 ppm. After air-dryness, it was placed in a plastic Petri dish with a diameter of 9 cm and inoculated with second-instar larvae of common cutworm, after which the dish was closed and then allowed to stand in a room thermostatted at 25° C. Eight days after the inoculation, the dead and alive were counted. The mortality was calculated according to the following equation and the insecticidal effect was judged according to the criterion shown in Test Example 1. The test was carried out with triplicate groups of 10 insects. [formula]"}, "[3]": {"system": "Smaller tea Tortrix (Adoxophyes sp.)", "test": "Insecticidal effect on smaller tea tortrix (Test Example 3)", "details": "50 ppm; tea leaf immersed 30 seconds; larvae; 25° C., humidity 70%; eight days after the inoculation", "method": "Insecticidal Effect on Smaller tea Tortrix (Adoxophyes sp.)\nA leaf of tea tree was immersed for 30 seconds in a liquid chemical containing each compound listed in Table 1, 2 or 3 as an active ingredient to adjust the concentration to 50 ppm. After air-dryness, the leaf was transferred to a plastic dish with a diameter of 9 cm and inoculated with larval smaller tea tortrix. Then, the leaf was allowed to stand in a room thermostatted at 25° C. at a humidity of 70%. Eight days after the inoculation, the dead and alive were counted, and the insecticidal effect was judged according to the same criterion as mentioned in Test Example 1. The test was carried out with triplicate groups of 10 insects."}},
  "data": [
    {"smiles": "C[S+]([O-])CC(C)(C)NC(=O)c1c(Cl)cccc1C(=O)Nc1ccc(OC(F)(F)F)cc1Cl", "note": "(stereo not shown) [compound 370]", "values": [
      {"measurement": "Test Example 1 insecticidal effect (mortality)", "setting": "[1]", "result": "A (100)"},
      {"measurement": "Test Example 2 insecticidal effect (mortality)", "setting": "[2]", "result": "A (100)"}
    ]},
    {"smiles": "CCN(CCCSC)C(=O)c1c(F)cccc1C(=O)Nc1ccc(C(F)(C(F)(F)F)C(F)(F)F)cc1C", "note": "[2-6]", "values": [
      {"measurement": "Test Example 1 insecticidal effect (mortality)", "setting": "[1]", "result": "A (100)"},
      {"measurement": "Test Example 2 insecticidal effect (mortality)", "setting": "[2]", "result": "D (79-50)"}
    ]},
    {"smiles": "CSCC(C)NC(=O)c1c(Br)cccc1C(=O)Nc1ccc(OC(F)(F)F)cc1Cl", "note": "(stereo not shown) [compound 337]", "values": [
      {"measurement": "Test Example 1 insecticidal effect (mortality)", "setting": "[1]", "result": "A (100)"},
      {"measurement": "Test Example 2 insecticidal effect (mortality)", "setting": "[2]", "result": "A (100)"}
    ]},
    {"smiles": "Cc1cc(C(F)(F)F)ccc1NC(=O)c1cccc(Br)c1C(=O)NC(C)(C)C[S+](C)[O-]", "note": "(stereo not shown) [compound 311]", "values": [
      {"measurement": "Test Example 1 insecticidal effect (mortality)", "setting": "[1]", "result": "A (100)"},
      {"measurement": "Test Example 2 insecticidal effect (mortality)", "setting": "[2]", "result": "A (100)"}
    ]},
    {"smiles": "COCC[S+]([O-])CC(C)NC(=O)c1c(I)cccc1C(=O)Nc1ccc(C(F)(C(F)(F)F)C(F)(F)F)cc1C", "note": "(stereo not shown) [compound 340]", "values": [
      {"measurement": "Test Example 1 insecticidal effect (mortality)", "setting": "[1]", "result": "A (100)"},
      {"measurement": "Test Example 2 insecticidal effect (mortality)", "setting": "[2]", "result": "A (100)"}
    ]},
    {"smiles": "Cc1cc(OC(F)(F)F)ccc1NC(=O)c1cccc(Br)c1C(=O)NC(C)CS(C)(=O)=O", "note": "(stereo not shown) [compound 88]", "values": [
      {"measurement": "Test Example 1 insecticidal effect (mortality)", "setting": "[1]", "result": "A (100)"},
      {"measurement": "Test Example 2 insecticidal effect (mortality)", "setting": "[2]", "result": "C (89-80)"}
    ]},
    {"smiles": "Cc1cc(C(F)(F)C(F)(F)F)ccc1NC(=O)c1cccc([N+](=O)[O-])c1C(=O)NC(C)(C)CS(C)(=O)=O", "note": "[compound 375]", "values": [
      {"measurement": "Test Example 1 insecticidal effect (mortality)", "setting": "[1]", "result": "A (100)"},
      {"measurement": "Test Example 2 insecticidal effect (mortality)", "setting": "[2]", "result": "A (100)"}
    ]},
    {"smiles": "Cc1cc(Oc2ncc(C(F)(F)F)cc2Cl)ccc1NC(=O)c1cccc(I)c1C(=O)NC(C)C[S+](C)[O-]", "note": "(stereo not shown) [compound 410]", "values": [
      {"measurement": "Test Example 1 insecticidal effect (mortality)", "setting": "[1]", "result": "A (100)"},
      {"measurement": "Test Example 2 insecticidal effect (mortality)", "setting": "[2]", "result": "A (100)"}
    ]},
    {"smiles": "CSCC(C)NC(=O)c1cccc(Cl)c1C(=O)Nc1ccc(C(F)(F)C(F)(F)F)cc1C", "note": "(stereo not shown) [compound 115]", "values": [
      {"measurement": "Test Example 1 insecticidal effect (mortality)", "setting": "[1]", "result": "A (100)"},
      {"measurement": "Test Example 2 insecticidal effect (mortality)", "setting": "[2]", "result": "A (100)"}
    ]},
    {"smiles": "Cc1cc(OC(F)(F)F)ccc1NC(=O)c1cccc(Cl)c1C(=O)NC(C)C[S+](C)[O-]", "note": "(stereo not shown) [compound 143]", "values": [
      {"measurement": "Test Example 1 insecticidal effect (mortality)", "setting": "[1]", "result": "A (100)"},
      {"measurement": "Test Example 2 insecticidal effect (mortality)", "setting": "[2]", "result": "D (79-50)"}
    ]},
    {"smiles": "Cc1cc(OC(F)(F)F)ccc1NC(=O)c1cccc(I)c1C(=O)NC(C)CS(=O)(=O)C(C)(C)C", "note": "(stereo not shown) [compound 139]", "values": [
      {"measurement": "Test Example 1 insecticidal effect (mortality)", "setting": "[1]", "result": "A (100)"},
      {"measurement": "Test Example 2 insecticidal effect (mortality)", "setting": "[2]", "result": "A (100)"}
    ]},
    {"smiles": "Cc1cc(C(F)(F)C(F)(F)F)ccc1NC(=O)c1cccc(I)c1C(=O)N1CCSC1", "note": "[3-1]", "values": [
      {"measurement": "Test Example 1 insecticidal effect (mortality)", "setting": "[1]", "result": "A (100)"},
      {"measurement": "Test Example 2 insecticidal effect (mortality)", "setting": "[2]", "result": "A (100)"}
    ]},
    {"smiles": "C[S+]([O-])CC(C)(C)NC(=O)c1c(Br)cccc1C(=O)Nc1ccc(OC(F)(F)F)cc1Cl", "note": "(stereo not shown) [compound 232]", "values": [
      {"measurement": "Test Example 1 insecticidal effect (mortality)", "setting": "[1]", "result": "A (100)"},
      {"measurement": "Test Example 2 insecticidal effect (mortality)", "setting": "[2]", "result": "A (100)"}
    ]},
    {"smiles": "Cc1cc(OC(F)(F)F)ccc1NC(=O)c1cccc(Br)c1C(=O)NC(C)C[S+](C)[O-]", "note": "(stereo not shown) [compound 87]", "values": [
      {"measurement": "Test Example 1 insecticidal effect (mortality)", "setting": "[1]", "result": "A (100)"},
      {"measurement": "Test Example 2 insecticidal effect (mortality)", "setting": "[2]", "result": "C (89-80)"}
    ]},
    {"smiles": "CC(C[S+](C)[O-])NC(=O)c1c(Br)cccc1C(=O)Nc1ccc(OC(F)(F)F)cc1Cl", "note": "(stereo not shown) [compound 338]", "values": [
      {"measurement": "Test Example 1 insecticidal effect (mortality)", "setting": "[1]", "result": "A (100)"},
      {"measurement": "Test Example 2 insecticidal effect (mortality)", "setting": "[2]", "result": "A (100)"}
    ]},
    {"smiles": "CSCC(C)(C)NC(=O)c1c(Br)cccc1C(=O)Nc1ccc(OC(F)(F)F)cc1Cl", "note": "[compound 227]", "values": [
      {"measurement": "Test Example 1 insecticidal effect (mortality)", "setting": "[1]", "result": "A (100)"},
      {"measurement": "Test Example 2 insecticidal effect (mortality)", "setting": "[2]", "result": "A (100)"}
    ]},
    {"smiles": "Cc1cc(C(F)(C(F)(F)F)C(F)(F)F)ccc1NC(=O)c1cccc(I)c1C(=O)NC(C)C[S+]([O-])c1nc2ccccc2s1", "note": "(stereo not shown) [compound 344]", "values": [
      {"measurement": "Test Example 3 insecticidal effect (mortality)", "setting": "[3]", "result": "A (100)"},
      {"measurement": "Test Example 1 insecticidal effect (mortality)", "setting": "[1]", "result": "A (100)"}
    ]}
  ]
}
